In US20230073777A1, “CYCLIC-AMP RESPONSE ELEMENT BINDING PROTEIN (CBP) AND/OR ADENOVIRAL E1A BINDING PROTEIN OF 300 KDA (P300) DEGRADATION COMPOUNDS AND METHODS OF USE” (CULLGEN (SHANGHAI), INC., priority 2019, published 2023):
Read-outs that look alike come from different tables or passages of the source.

How the values were obtained:
[1] = tested on: LNCaP cells; test: LNCaP cell viability assay (CellTiter-Glo); type: cell-based; details: for IC50: Homo sapiens, 72 h, LNCaP prostate cancer cell viability inhibition, 3 days
In short: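 LNCaP cells, 5000/well, exposed to compounds in 12-point 3-fold serial dilution (top 10 μM) for 3 days. Viability by CellTiter-Glo luminescence, normalized to untreated cells; IC50 by least-squares nonlinear regression.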

[2] = target: P300 (Homo sapiens, UniProt Q09472); test: Immunoblotting of P300 protein levels in LNCaP or 22RV1 cells; type: cell-based; design: LNCaP or 22RV1 cells that express CBP/P300 proteins were treated with GNE-781 or the bivalent compounds; endogenous in cells; host or cells: LNCaP (clone FGC) or 22RV1 cells; details: read-out: Degradation (10 nM)
P300, sequence (Q09472 whole entry): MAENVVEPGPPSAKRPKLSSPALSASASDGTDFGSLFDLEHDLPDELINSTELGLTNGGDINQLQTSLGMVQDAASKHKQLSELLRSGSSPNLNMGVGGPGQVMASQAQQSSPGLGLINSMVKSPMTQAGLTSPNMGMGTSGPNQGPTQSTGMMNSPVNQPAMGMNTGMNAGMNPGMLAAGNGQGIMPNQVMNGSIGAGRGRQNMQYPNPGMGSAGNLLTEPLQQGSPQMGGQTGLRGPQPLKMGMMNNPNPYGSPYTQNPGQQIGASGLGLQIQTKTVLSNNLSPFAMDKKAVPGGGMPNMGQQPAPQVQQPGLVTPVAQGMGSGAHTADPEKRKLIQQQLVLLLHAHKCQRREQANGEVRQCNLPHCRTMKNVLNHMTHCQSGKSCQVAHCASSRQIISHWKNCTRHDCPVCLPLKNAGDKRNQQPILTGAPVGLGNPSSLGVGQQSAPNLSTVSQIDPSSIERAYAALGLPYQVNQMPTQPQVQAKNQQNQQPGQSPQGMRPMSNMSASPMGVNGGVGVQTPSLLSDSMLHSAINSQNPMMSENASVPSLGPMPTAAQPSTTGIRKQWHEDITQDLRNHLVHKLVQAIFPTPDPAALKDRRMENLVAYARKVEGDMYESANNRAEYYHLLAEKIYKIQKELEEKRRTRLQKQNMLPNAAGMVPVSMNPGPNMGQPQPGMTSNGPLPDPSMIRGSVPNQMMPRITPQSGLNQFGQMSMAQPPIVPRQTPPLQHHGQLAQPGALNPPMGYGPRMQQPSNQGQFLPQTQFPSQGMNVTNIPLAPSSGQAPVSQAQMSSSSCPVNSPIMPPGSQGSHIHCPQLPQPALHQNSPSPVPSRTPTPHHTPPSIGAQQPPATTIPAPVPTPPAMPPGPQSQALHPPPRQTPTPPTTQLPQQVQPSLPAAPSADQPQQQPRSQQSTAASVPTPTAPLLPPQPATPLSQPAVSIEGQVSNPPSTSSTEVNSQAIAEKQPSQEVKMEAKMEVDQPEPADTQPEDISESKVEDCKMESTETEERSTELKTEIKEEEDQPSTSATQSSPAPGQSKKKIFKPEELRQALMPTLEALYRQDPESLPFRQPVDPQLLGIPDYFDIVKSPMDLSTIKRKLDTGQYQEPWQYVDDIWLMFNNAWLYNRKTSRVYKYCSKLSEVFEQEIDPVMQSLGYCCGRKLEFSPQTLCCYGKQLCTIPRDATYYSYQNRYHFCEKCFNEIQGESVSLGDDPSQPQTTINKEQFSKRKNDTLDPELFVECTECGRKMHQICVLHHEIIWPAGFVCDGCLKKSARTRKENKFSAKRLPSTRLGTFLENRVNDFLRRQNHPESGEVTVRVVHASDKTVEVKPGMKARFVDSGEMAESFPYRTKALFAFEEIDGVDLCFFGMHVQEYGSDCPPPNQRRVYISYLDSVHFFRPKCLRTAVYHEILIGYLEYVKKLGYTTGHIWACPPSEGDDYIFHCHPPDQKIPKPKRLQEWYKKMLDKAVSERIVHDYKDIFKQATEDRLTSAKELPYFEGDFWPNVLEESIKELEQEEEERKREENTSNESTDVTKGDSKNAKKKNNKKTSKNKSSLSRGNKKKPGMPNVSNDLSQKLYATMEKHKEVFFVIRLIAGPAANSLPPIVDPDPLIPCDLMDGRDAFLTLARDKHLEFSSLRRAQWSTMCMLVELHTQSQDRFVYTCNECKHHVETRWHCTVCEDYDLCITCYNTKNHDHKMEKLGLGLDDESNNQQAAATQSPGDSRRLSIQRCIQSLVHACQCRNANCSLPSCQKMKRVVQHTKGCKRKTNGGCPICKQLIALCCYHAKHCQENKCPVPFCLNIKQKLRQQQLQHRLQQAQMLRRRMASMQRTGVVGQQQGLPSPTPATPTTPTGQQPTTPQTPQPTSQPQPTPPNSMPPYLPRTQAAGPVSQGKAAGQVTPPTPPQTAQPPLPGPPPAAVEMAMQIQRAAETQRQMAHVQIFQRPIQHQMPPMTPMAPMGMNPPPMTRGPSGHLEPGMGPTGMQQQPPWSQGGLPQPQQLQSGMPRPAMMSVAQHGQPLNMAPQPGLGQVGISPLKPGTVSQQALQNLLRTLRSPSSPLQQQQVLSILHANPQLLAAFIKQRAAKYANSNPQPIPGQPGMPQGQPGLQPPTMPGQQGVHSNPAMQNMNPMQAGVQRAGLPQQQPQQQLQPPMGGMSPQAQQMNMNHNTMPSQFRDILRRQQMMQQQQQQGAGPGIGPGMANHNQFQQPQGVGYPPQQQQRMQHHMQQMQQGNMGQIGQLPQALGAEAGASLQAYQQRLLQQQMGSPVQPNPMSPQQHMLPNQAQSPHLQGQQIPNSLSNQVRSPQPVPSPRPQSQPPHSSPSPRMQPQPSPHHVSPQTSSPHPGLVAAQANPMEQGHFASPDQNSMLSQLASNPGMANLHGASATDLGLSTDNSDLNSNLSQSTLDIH
In short: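 LNCaP or 22RV1 cells treated with compounds for indicated hours, DMSO as negative control. RIPA lysates resolved by SDS-PAGE and immunoblotted for P300 or CBP, tubulin or vinculin as loading control; chemiluminescent bands quantitated.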

[3] = percentage of inhibition of p300 at 10 nM (Table 2)
[4] = percentage of inhibition of p300 at 10 nM (Table 3)

IC50 ([1]; CellTiter-Glo (Table 2)) [nM] | inhibition at 0.01 µM [2, 3] [%] | IC50 ([1]; CellTiter-Glo (Table 3)) [nM] | inhibition at 0.01 µM [2, 4] [%] | Structure (SMILES) | other results
185 | 50 to 80 |  |  | CNC(=O)N1CCc2c(c(N3CCCc4cc(-c5cnn(C)c5)c(C(F)F)cc43)nn2C2CCN(C(=O)CNc3ccc4c(c3)C(=O)N(C3CCC(=O)NC3=O)C4=O)CC2)C1 (centres unmarked) [P-001, 3-(7-(Difluoromethyl)-6-(1-methyl-1H-pyrazol-4-yl)-3,4-dihydroquinolin-1(2H)-yl)-1-(1-((2-(2,6-dioxopiperidin-3-yl)-1,3-dioxoisoindolin-5-yl)glycyl)piperidin-4-yl)-N-methyl-1,4,6,7-tetrahydro-5H-pyrazolo[4,3-c]pyridine-5-carboxamide] | viability of LNCaP cells ([1]; from 10 μM, 12-point 3-fold serial dilution, 3 days (FIG. 4)): dose-dependently suppressed viability
7.3 | > 80 |  |  | CNC(=O)N1CCc2c(c(N3CCCc4cc(-c5cnn(C)c5)c(C(F)F)cc43)nn2C2CCN(C(=O)CCCNc3cccc4c3C(=O)N(C3CCC(=O)NC3=O)C4=O)CC2)C1 (centres unmarked) [P-015, 3-(7-(difluoromethyl)-6-(1-methyl-1H-pyrazol-4-yl)-3,4-dihydroquinolin-1(2H)-yl)-1-(1-(4-((2-(2,6-dioxopiperidin-3-yl)-1,3-dioxoisoindolin-4-yl)amino)butanoyl)piperidin-4-yl)-N-methyl-1,4,6,7-tetrahydro-5H-pyrazolo[4,3-c]pyridine-5-carboxamide] | 
 |  | > 500 | < 20 | CC(=O)N1CCc2c(c(N3CCCc4cc(-c5cnn(C)c5)c(C(F)F)cc43)nn2C2CCN(C(=O)CCC3CN(Cc4cccc5c4C(=O)N(C4CCC(=O)NC4=O)C5=O)C3)CC2)C1 (centres unmarked) [P-156, 4-((3-(3-(4-(5-Acetyl-3-(7-(difluoromethyl)-6-(1-methyl-1H-pyrazol-4-yl)-3,4-dihydroquinolin-1(2H)-yl)-4,5,6,7-tetrahydro-1H-pyrazolo[4,3-c]pyridin-1-yl)piperidin-1-yl)-3-oxopropyl)azetidin-1-yl)methyl)-2-(2,6-dioxopiperidin-3-yl)isoindoline-1,3-dione] | 
 |  | 81.3 | < 20 | CNC(=O)N1CCc2c(c(N3CCCc4cc(-c5cnn(C)c5)c(C(F)F)cc43)nn2C2CCN(C(=O)CCCCCCCC(=O)N[C@H](C(=O)N3C[C@H](O)C[C@H]3C(=O)NCc3ccc(-c4scnc4C)cc3)C(C)(C)C)CC2)C1 [P-061, 3-(7-(Difluoromethyl)-6-(1-methyl-1H-pyrazol-4-yl)-3,4-dihydroquinolin-1(2H)-yl)-1-(1-(9-(((S)-1-((2S,4R)-4-hydroxy-2-((4-(4-methylthiazol-5-yl)benzyl)carbamoyl)pyrrolidin-1-yl)-3,3-dimethyl-1-oxobutan-2-yl)amino)-9-oxononanoyl)piperidin-4-yl)-N-methyl-1,4,6,7-tetrahydro-5H-pyrazolo[4,3-c]pyridine-5-carboxamide] | 
 |  | 59.1 | < 20 | CNC(=O)N1CCc2c(c(N3CCCc4cc(-c5cnn(C)c5)c(C(F)F)cc43)nn2C2CCN(C(=O)CCCCCCC(=O)N[C@H](C(=O)N3C[C@H](O)C[C@H]3C(=O)NCc3ccc(-c4scnc4C)cc3)C(C)(C)C)CC2)C1 [P-060, 3-(7-(Difluoromethyl)-6-(1-methyl-1H-pyrazol-4-yl)-3,4-dihydroquinolin-1(2H)-yl)-1-(1-(8-(((S)-1-((2S,4R)-4-hydroxy-2-((4-(4-methylthiazol-5-yl)benzyl)carbamoyl)pyrrolidin-1-yl)-3,3-dimethyl-1-oxobutan-2-yl)amino)-8-oxooctanoyl)piperidin-4-yl)-N-methyl-1,4,6,7-tetrahydro-5H-pyrazolo[4,3-c]pyridine-5-carboxamide] | 
 |  | 16.5 | 50 to 80 | CC(=O)N1CCc2c(c(N3CCCc4cc(-c5cnn(C)c5)c(C(F)F)cc43)nn2C2CCN(C(=O)CCCCCCn3c(=O)n(C4CCC(=O)NC4=O)c4ccccc43)CC2)C1 (centres unmarked) [P-108, 3-(3-(7-(4-(5-Acetyl-3-(7-(difluoromethyl)-6-(1-methyl-1H-pyrazol-4-yl)-3,4-dihydroquinolin-1(2H)-yl)-4,5,6,7-tetrahydro-1H-pyrazolo[4,3-c]pyridin-1-yl)piperidin-1-yl)-7-oxoheptyl)-2-oxo-2,3-dihydro-1H-benzo[d]imidazol-1-yl)piperidine-2,6-dione] | 
15.4 | 20 to 50 |  |  | CNC(=O)N1CCc2c(c(N3CCCc4cc(-c5cnn(CC(=O)NCCCCCCCCNc6cccc7c6C(=O)N(C6CCC(=O)NC6=O)C7=O)c5)c(C(F)F)cc43)nn2C2CCOCC2)C1 (centres unmarked) [P-043, 3-(7-(difluoromethyl)-6-(1-(2-((8-((2-(2,6-dioxopiperidin-3-yl)-1,3-dioxoisoindolin-4-yl)amino)octyl)amino)-2-oxoethyl)-1H-pyrazol-4-yl)-3,4-dihydroquinolin-1(2H)-yl)-N-methyl-1-(tetrahydro-2H-pyran-4-yl)-1,4,6,7-tetrahydro-5H-pyrazolo[4,3-c]pyridine-5-carboxamide] | 
 |  | 105 | < 20 | CNC(=O)N1CCc2c(c(N3CCCc4cc(-c5cnn(C)c5)c(C(F)F)cc43)nn2C2CCN(C(=O)CCOCCOCCNc3cccc4c3C(=O)N(C3CCC(=O)NC3=O)C4=O)CC2)C1 (centres unmarked) [P-052, 3-(7-(Difluoromethyl)-6-(1-methyl-1H-pyrazol-4-yl)-3,4-dihydroquinolin-1(2H)-yl)-1-(1-(3-(2-(2-((2-(2,6-dioxopiperidin-3-yl)-1,3-dioxoisoindolin-4-yl)amino)ethoxy)ethoxy)propanoyl)piperidin-4-yl)-N-methyl-1,4,6,7-tetrahydro-5H-pyrazolo[4,3-c]pyridine-5-carboxamide] | 
 |  | 13.1 | 50 to 80 | CNC(=O)N1CCc2c(c(N3CCCc4cc(-c5cnn(C)c5)c(C(F)F)cc43)nn2C2CCN(C(=O)CCCCCOc3cccc4c3C(=O)N(C3CCC(=O)NC3=O)C4=O)CC2)C1 (centres unmarked) [P-084, 3-(7-(Difluoromethyl)-6-(1-methyl-1H-pyrazol-4-yl)-3,4-dihydroquinolin-1(2H)-yl)-1-(1-(6-((2-(2,6-dioxopiperidin-3-yl)-1,3-dioxoisoindolin-4-yl)oxy)hexanoyl)piperidin-4-yl)-N-methyl-1,4,6,7-tetrahydro-5H-pyrazolo[4,3-c]pyridine-5-carboxamide] | 
4 | > 80 |  |  | CNC(=O)N1CCc2c(c(N3CCCc4cc(-c5cnn(C)c5)c(C(F)F)cc43)nn2C2CCN(C(=O)CCCCCNc3ccc4c(c3)C(=O)N(C3CCC(=O)NC3=O)C4=O)CC2)C1 (centres unmarked) [P-005, 3-(7-(difluoromethyl)-6-(1-methyl-1H-pyrazol-4-yl)-3,4-dihydroquinolin-1(2H)-yl)-1-(1-(6-((2-(2,6-dioxopiperidin-3-yl)-1,3-dioxoisoindolin-5-yl)amino)hexanoyl)piperidin-4-yl)-N-methyl-1,4,6,7-tetrahydro-5H-pyrazolo[4,3-c]pyridine-5-carboxamide] | 
111 | 20 to 50 |  |  | CNC(=O)N1CCc2c(c(N3CCCc4cc(-c5cnn(CC(=O)NCCCCCCCCCCC(=O)N[C@H](C(=O)N6C[C@H](O)C[C@H]6C(=O)NCc6ccc(-c7scnc7C)cc6)C(C)(C)C)c5)c(C(F)F)cc43)nn2C2CCOCC2)C1 [P-050, 3-(7-(Difluoromethyl)-6-(1-(2-((11-(((S)-1-((2S,4R)-4-hydroxy-2-((4-(4-methylthiazol-5-yl)benzyl)carbamoyl)pyrrolidin-1-yl)-3,3-dimethyl-1-oxobutan-2-yl)amino)-11-oxoundecyl)amino)-2-oxoethyl)-1H-pyrazol-4-yl)-3,4-dihydroquinolin-1(2H)-yl)-N-methyl-1-(tetrahydro-2H-pyran-4-yl)-1,4,6,7-tetrahydro-5H-pyrazolo[4,3-c]pyridine-5-carboxamide] | 
 |  | 7.5 | > 80 | CC(=O)N1CCc2c(c(N3CCCc4cc(-c5cnn(C)c5)c(C(F)F)cc43)nn2C2CCN(C(=O)CCCCCNc3cccc4nnn(C5CCC(=O)NC5=O)c(=O)c34)CC2)C1 (centres unmarked) [P-151, 3-(5-((6-(4-(5-acetyl-3-(7-(difluoromethyl)-6-(1-methyl-1H-pyrazol-4-yl)-3,4-dihydroquinolin-1(2H)-yl)-4,5,6,7-tetrahydro-1H-pyrazolo[4,3-c]pyridin-1-yl)piperidin-1-yl)-6-oxohexyl)amino)-4-oxobenzo[d][1,2,3]triazin-3(4H)-yl)piperidine-2,6-dione] | 
 |  | 2.1 | > 80 | CC(=O)N1CCc2c(c(N3CCCc4cc(-c5cnn(C)c5)c(C(F)F)cc43)nn2C2CCN(CCCCCCNc3cccc4c3C(=O)N(C3CCC(=O)NC3=O)C4=O)CC2)C1 (centres unmarked) [P-112, 4-((6-(4-(5-acetyl-3-(7-(difluoromethyl)-6-(1-methyl-1H-pyrazol-4-yl)-3,4-dihydroquinolin-1(2H)-yl)-4,5,6,7-tetrahydro-1H-pyrazolo[4,3-c]pyridin-1-yl)piperidin-1-yl)hexyl)amino)-2-(2,6-dioxopiperidin-3-yl)isoindoline-1,3-dione] | 

Structure (SMILES) | IC50 ([1]; CellTiter-Glo (Table 2)) [nM] | inhibition at 0.01 µM [2, 3] [%] | IC50 ([1]; CellTiter-Glo (Table 3)) [nM] | inhibition at 0.01 µM [2, 4] [%] | other results
CC(=O)N1CCc2c(c(N3CCCc4cc(-c5cnn(C)c5)c(C(F)F)cc43)nn2C2CCN(C(=O)CCCCCn3c(=O)n(C4CCC(=O)NC4=O)c4ccccc43)CC2)C1 (centres unmarked) [P-107, 3-(3-(6-(4-(5-Acetyl-3-(7-(difluoromethyl)-6-(1-methyl-1H-pyrazol-4-yl)-3,4-dihydroquinolin-1(2H)-yl)-4,5,6,7-tetrahydro-1H-pyrazolo[4,3-c]pyridin-1-yl)piperidin-1-yl)-6-oxohexyl)-2-oxo-2,3-dihydro-1H-benzo[d]imidazol-1-yl)piperidine-2,6-dione] |  |  | 20.4 |  | inhibition at 0.01 µM [2]: 50 to 80%
